This note sets out measurements from ChEMBL document CHEMBL1158982, “Chemical studies on Mexican plants used in traditional medicine, XXI. Ratibinolide II, a new sesquiterpene lactone from Ratibida latipalearis” (J Nat Prod, 1991).

One may read the LC50 as the concentration lethal to half of the exposed cells or organisms. Lower therefore signals greater toxicity.

This data set is described as follows: Toxicity against brine shrimp. Format: organism-based. As to conditions: artemia, in vivo.

≈ marks a conversion by molar mass, not a printed value.

As to `C=C1C(=O)O[C@H]2[C@H]1CC[C@@]1(C)[C@@H](O)C=C[C@@]3(C)O[C@]231` [RATIBINOLIDE II], the LC50 stood at 69.5 µg/mL (≈ 265 µM).
